Molecules are shown by their SMILES.

Holding throughout (format): in vivo
Data set [1] is described as follows: Pharmacokinetic test of Compound 10 in mice (intravenous and intragastric). The note with it: mouse, plasma, male CD-1 mice; for AUC(0-inf): read-out: Curve Area (0-inf) AUC0-inf; for AUC(0-t): read-out: Curve Area (0-t) AUC0-last; for half-life: read-out: Half Life T1/2 (converted). The procedure: Taking male CD-1 mice as test animals, drug concentrations in plasma at different moments after intravenous and intragastric administration of Compound 10 to the mice were determined by the LC/MS/MS method. The pharmacokinetic behavior of Compound 10 in mice was investigated and its pharmacokinetic profile was evaluated.
2.2 Test Animals: Four healthy adult male CD-1 mice were divided into 2 groups, with 2 mice in each group, according to the principle of similar body weight. The animals were purchased from Shanghai Super-BK Laboratory Animal Co., Ltd., with Animal Production License No.: SCXK (Shanghai) 2013-0016.
2.3 Drug Preparation An appropriate amount of sample was weighed, and an appropriate amount of DMSO, PEG400 and water were added successively at a volume ratio of 10:40:50. After stirring and ultrasonic processing, the resulting mixture reached a clear solution state of 0.4 mg/mL for intravenous administration.
An appropriate amount of sample was weighed, and dissolved in a solution of 0.5% CMC+0.2% Tween 80. After stirring and ultrasonic processing, the resulting mixture reached a uniform suspension state of 0.4 mg/mL for intragastric administration.
Four male CD-1 mice were divided into 2 groups, and fasted overnight. The first group was intravenously administered at an administration volume of 2.5 mL/kg in a dose of 1 mg/kg; and the second group was intragastrically administered at an administration volume of 5 mL/kg in a dose of 2 mg/kg.
(§1) After Compound 10 was intravenously administered to the male CD-1 mice, 30 μL of blood was collected at 0.0833, 0.25, 0.5, 1, 2, 4, 8, and 24 h respectively, and placed in test tubes containing 2 μL of EDTA-K2. After Compound 10 was administered to the intragastric administration group, 30 μL of blood was collected at 0.25, 0.5, 1, 2, 4, 8, and 24 h respectively, and placed in test tubes containing 2 μL of EDTA-K2. The test tubes were centrifuged at 3000 g for 15 min to separate the plasma, which was stored at −60° C. The animals were allowed to eat 2 hours after administration.
(§2) After intravenous and intragastric administration to the mice, the content of the test compound in plasma was determined by the LC/MS/MS method. The linear range of the method was 2.00-6000 nmol/L; and the plasma samples were analyzed after the treatment with acetonitrile precipitated protein.

The nature of data set [2]: Tissue distribution test of Compound 27 and Compound 10 (plasma and brain). The note with it: intragastric 2 mg/kg, 2 h after administration, male CD-1 mice. As to the method:
Taking male CD-1 mice as test animals, drug concentrations in plasma and brain after intragastric administration of Compound 27 and Compound 10 to the mice were determined by the LC/MS/MS method, respectively.
2.2 Test Animals: Six healthy adult male CD-1 mice were divided into 2 groups, with 3 mice in each group, according to the principle of similar body weight. The animals were purchased from Shanghai Super-BK Laboratory Animal Co., Ltd., with Animal Production License No.: SCXK (Shanghai) 2013-0016.
An appropriate amount of sample was weighed, and an appropriate amount of DMSO, PEG400 and water were added successively at a volume ratio of 10:40:50. After stirring and ultrasonic processing, the resulting mixture reached a clear solution state of 0.4 mg/mL.
Six male CD-1 mice were divided into 2 groups, fasted overnight, and intragastrically administered at an administration volume of 5 mL/kg in a dose of 2 mg/kg.
After Compound 27 and Compound 10 were intragastrically administered to the male CD-1 mice, 100 μL of blood was collected by cardiac puncture at 2 h, placed in a test tube containing 2 μl of EDTA-K2, and centrifuged at 3000 g for 15 min to separate 50 μL of plasma, which was stored at −60° C. Meanwhile, brain tissues were collected, washed, then homogenized with 5-fold 15 mM PBS/MeOH (v:v, 2:1), and stored at −60° C. The animals were allowed to eat 2 hours after administration.
(§3) After intragastric administration to the mice, the content of the test compound in plasma and brain was determined by the LC/MS/MS method. The linear range of the method was 2.00-6000 nmol/L; and the plasma samples were analyzed after the treatment with acetonitrile precipitated protein.

Data set [3] in a line: Pharmacokinetic test of Compound 35 and Compound 58 in mice (intravenous and intragastric). The note with it: mouse, plasma, male CD-1 mice; for AUC(0-t): read-out: Curve Area (0-t) AUC0-last; for Cmax: read-out: Plasma Concentration Cmax; for Tmax: read-out: Time to Peak Tmax; for Vd: read-out: Apparent Volume of Distribution Vdss; for clearance: read-out: Clearance Rate CI; for AUC(0-inf): read-out: Curve Area (0-inf) AUC0-inf; for half-life: read-out: Half Life T1/2 (converted). The procedure: With reference to Example 76, the pharmacokinetic behaviors of Compound 35 and Compound 58 in mice were investigated and their pharmacokinetic profiles were evaluated.
2. Experimental Protocol Refers to Example 76.
as §1, with “Compound 35 and Compound 58 were” for “Compound 10 was”, “was cross-collected” for “was collected”, “8, 24,” for “8,”, “and 48” for “and 24”, “tubes was” for “tubes were”, “eat 4” for “eat 2”
as §2

Data set [4] is described as follows: Tissue distribution test of Compound 35 and Compound 58 (plasma and brain). The note with it: intragastric 2 mg/kg, 4 h after administration, male CD-1 mice; for Kp at 4 h / concentration at 4 h: mouse, oral; for Kp at 4 h: brain / plasma, read-out: Brain to Blood Ratio; for concentration at 4 h: plasma. As to the method:
Taking male CD-1 mice as test animals, drug concentrations in plasma and brain after intragastric administration of Compound 35 and Compound 58 to the mice were determined by the LC/MS/MS method, respectively.
2.2 Test Animals: Two healthy adult male CD-1 mice. The animals were purchased from Shanghai Sippr-BK Laboratory Animal Co., Ltd.
An appropriate amount of sample was weighed, and added in a solution of 0.5% CMC+0.2% Tween in water. After stirring and ultrasonic processing, the resulting mixture reached a suspension state of 0.4 mg/mL.
Two male CD-1 mice were fasted overnight, and intragastrically administered at an administration volume of 5 mL/kg in a dose of 2 mg/kg.
After Compound 35 and Compound 58 were intragastrically administered to the male CD-1 mice, 100 μL of blood was collected by cardiac puncture at 4 h, placed in a test tube containing 2 μl of EDTA-K2, and centrifuged at 3000 g for 15 min to separate 30 μL of plasma, which was stored at −60° C. Meanwhile, brain tissues were collected, washed, then homogenized with 9-fold 15 mM PBS/MeOH (v:v, 2:1), and stored at −60° C. The animals were allowed to eat 4 hours after administration.
as §3

Setting [5] is: po, intragastric administration, 2 mg/kg.
[6] abbreviates: intravenous administration, 1 mg/kg.

As for `CCc1nc(OCCO)c2cc(N3C(=S)N(c4ccc(C#N)c(C(F)(F)F)c4)C(=O)C3(C)C)cc(F)c2n1` [Compound 10], in data set [1] (setting [5]), the bioavailability amounted to 41.7%, the AUC(0-inf) was found to be 27.9 µM·h, the AUC(0-t) was 26.3 µM·h and the half-life was 330 min. The Cmax in data set [1] (po, intragastric administration, 2 mg/kg, read-out: Plasma Concentration Cmax) turned out to be 2760 nM. Moreover, in data set [1] (po, intragastric administration, 2 mg/kg, read-out: Time to Peak Tmax), the Tmax amounted to 4 h. In addition, the Vd in data set [1] (intravenous administration, 1 mg/kg, read-out: Apparent Volume of Distribution Vdss) worked out at 0.384 L/kg. In addition, in data set [1] (intravenous administration, 1 mg/kg, read-out: Clearance Rate CI), the clearance turned out to be 0.912 mL/min/kg. For the same compound, in data set [1] (setting [6]), the AUC(0-inf) was 33.5 µM·h, the AUC(0-t) amounted to 32.3 µM·h and the half-life is 293 min. Further, the “Concentration in Brain” value in data set [2] was found to be 67.38 ± 44.5 nmol/kg. In addition, the Kp at 2 h in data set [2] (mouse, brain / plasma, oral, read-out: Brain to Blood Ratio) was 0.0133 ± 0.0006. In data set [2] (mouse, plasma, oral), this compound registered a concentration at 2 h of 5 ± 3.16 µM.
Regarding `CCc1cc(=O)n2cc(N3C(=S)N(c4ccc(C#N)c(C(F)(F)F)c4)C(=O)C3(C)C)cc(F)c2n1` [Compound 35], in data set [3] (setting [5]), the bioavailability worked out at 94%, the AUC(0-t) was determined as 110 µM·h, the Cmax was determined as 5.78 µM and the Tmax was 6 h. Moreover, in data set [3] (setting [6]), the Vd came to 0.667 L/kg, the clearance turned out to be 0.189 mL/min/kg, the AUC(0-inf) turned out to be 194 µM·h and the AUC(0-t) turned out to be 58.7 µM·h. Further, in data set [3] (setting [6]), the half-life is 2710 min. In addition, in data set [4], the “Concentration in Brain” value came to 281 nmol/kg, the Kp at 4 h amounted to 0.0742 and the concentration at 4 h is 4.12 µM.
As for `CCc1cc(=O)n2cc(N3C(=S)N(c4ccc(C#N)c(Cl)c4)C(=O)C3(C)C)cc(F)c2n1` [Compound 58], in data set [3] (setting [5]), the AUC(0-t) stood at 370 µM·h, the Cmax worked out at 12.8 µM and the Tmax was determined as 8 h. Also, in data set [3] (setting [6]), the Vd was 0.248 L/kg, the clearance worked out at 0.0794 mL/min/kg, the AUC(0-inf) was 447 µM·h and the AUC(0-t) came to 271 µM·h. The half-life in data set [3] (setting [6]) was 2200 min. In addition, in data set [4], the “Concentration in Brain” value worked out at 265 nmol/kg, the Kp at 4 h worked out at 0.0322 and the concentration at 4 h amounted to 8.26 µM.

The record behind these values is US11866433B2, “Diarylthiohydantoin compound as androgen receptor antagonist” (CHIA TAI TIANQING PHARMACEUTICAL GROUP CO., LTD., priority 2017, dated 2024).
